The record followed here is PubChem BioAssay AID328 (DTP/NCI, 2004).

SMILES strings stand for the structures. Several values for one entry are separate records, joined by “and”; a condition that tells them apart may be missing. Equal entries are not always repeated. Toxic doses and inconclusive results are not listed.

This experiment concerns BDF1 mice, P388 leukemia ip, median survival T/C. Description: NCI In Vivo Anticancer Drug Screen. Data for tumor model P388 Leukemia (intraperitoneal) in B6D2F1 (BDF1) mice. The conditions noted are these: endpoint: median survival time, higher = longer survival. The method in brief:
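Antitumour effect was judged in vivo: survival in drug-treated mice, normalised to that of vehicle-dosed controls, gives the reported T/C.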

Setting [1] is: dose: 12.5 mg/kg/injection, schedule: Q01DX009 (ip), vehicle: saline.
The mark [2] stands for this setting: dose: 12.5 mg/kg/injection, schedule: Q01DX009 (ip), vehicle: saline with Tween-80.
The mark [3] stands for this setting: dose: 25.0 mg/kg/injection, schedule: Q01DX009 (ip), vehicle: saline with Tween-80.
Where [4] appears, read: dose: 50.0 mg/kg/injection, schedule: Q01DX009 (ip), vehicle: saline with Tween-80.
[5] abbreviates: dose: 50.0 mg/kg/injection, schedule: Q04DX003 (ip), vehicle: saline with Tween-80.
[6] abbreviates: dose: 100.0 mg/kg/injection, schedule: Q04DX003 (ip), vehicle: Klucel (hydroxypropylcellulose) (HPC).
[7] abbreviates: dose: 200.0 mg/kg/injection, schedule: Q04DX003 (ip), vehicle: Klucel (hydroxypropylcellulose) (HPC).
The mark [8] stands for this setting: dose: 12.5 mg/kg/injection, schedule: Q04DX003 (ip), vehicle: Klucel (hydroxypropylcellulose) (HPC).
The mark [9] stands for this setting: dose: 25.0 mg/kg/injection, schedule: Q04DX003 (ip), vehicle: Klucel (hydroxypropylcellulose) (HPC).
[10] abbreviates: dose: 100.0 mg/kg/injection, schedule: Q01DX009 (ip), vehicle: saline.
[11] abbreviates: dose: 200.0 mg/kg/injection, schedule: Q01DX009 (ip), vehicle: saline.
Setting [12] is: dose: 100.0 mg/kg/injection, schedule: Q01DX009 (ip), vehicle: saline with Tween-80.
[13] abbreviates: dose: 50.0 mg/kg/injection, schedule: Q01DX009 (ip), vehicle: saline.
The mark [14] stands for this setting: dose: 200.0 mg/kg/injection, schedule: Q01DX009 (ip), vehicle: saline with Tween-80.

Take `N#C[C@@H]1C2C=CC(CC2)[C@H]1C#N`: the T/C is, setting by setting: (dose: 0.29 mg/kg/injection, schedule: Q04DX003 (ip), vehicle: saline) 95 % of control; (dose: 0.44 mg/kg/injection, schedule: Q04DX003 (ip), vehicle: saline) 120 % of control; (dose: 0.66 mg/kg/injection, schedule: Q04DX003 (ip), vehicle: saline) 100 % of control; (dose: 1.0 mg/kg/injection, schedule: Q04DX003 (ip), vehicle: saline) 115 % of control; (dose: 1.5 mg/kg/injection, schedule: Q04DX003 (ip), vehicle: saline) 100 % of control; (dose: 5.0 mg/kg/injection, schedule: Q04DX003 (ip), vehicle: saline with Tween-80) 100 % of control.

As for `CC(=O)c1ccc[n+](Cc2c(Cl)cccc2Cl)c1`, the T/C was 93 % of control (dose: 3.13 mg/kg/injection, schedule: Q01DX009 (ip), vehicle: saline); 92 % of control (dose: 6.25 mg/kg/injection, schedule: Q01DX009 (ip), vehicle: saline); 92 % of control under setting [1].

Regarding `Cc1nc(N)c(N)nc1C`, the T/C under setting [2] was 95 % of control; the T/C under setting [3] was 88 % of control; the T/C (dose: 25.0 mg/kg/injection, schedule: Q04DX003 (ip), vehicle: saline with Tween-80) is 102 % of control; the T/C under setting [4] is 107 % of control; the T/C under setting [5] is 101 % of control.

In the case of `c1ccc2c(CNC3CCCCC3)c[nH]c2c1`, the T/C is 95 % of control under setting [6]; 90 % of control under setting [7]; 90 % of control (dose: 400.0 mg/kg/injection, schedule: Q04DX003 (ip), vehicle: Klucel (hydroxypropylcellulose) (HPC)).

`COC(=O)CCCc1cc(O)c2c(c1O)C(=O)c1ccccc1C2=O`: the T/C runs as follows: (dose: 100.0 mg/kg/injection, schedule: Q01DX001 (ip), vehicle: saline sonified) 100 % of control; (dose: 200.0 mg/kg/injection, schedule: Q01DX001 (ip), vehicle: saline sonified) 100 % of control; (dose: 400.0 mg/kg/injection, schedule: Q01DX001 (ip), vehicle: saline sonified) 95 % of control.

On to `ClC1C2c3ccccc3C(C1Cl)[n+]1ccccc12` (configuration not stated), for which the T/C was 100 % of control (dose: 8.75 mg/kg/injection, schedule: Q01DX009 (ip), vehicle: Klucel (hydroxypropylcellulose) (HPC)); 100 % of control under setting [8]; 100 % of control (dose: 17.5 mg/kg/injection, schedule: Q01DX009 (ip), vehicle: Klucel (hydroxypropylcellulose) (HPC)); 95 % of control under setting [9].

In the case of `NNC(=O)CCc1ccccc1Br`, the T/C by setting is: under setting [3], 100 % of control; under setting [4], 100 % of control.

For the molecule `Cc1cc(N)no1`, the T/C is, setting by setting: under setting [10], 92 % of control; (dose: 100.0 mg/kg/injection, schedule: Q04DX003 (ip), vehicle: saline) 104 % of control; under setting [11], 96 % of control; (dose: 200.0 mg/kg/injection, schedule: Q04DX003 (ip), vehicle: saline) 95 % of control; (dose: 400.0 mg/kg/injection, schedule: Q01DX009 (ip), vehicle: saline) 92 % of control; (dose: 400.0 mg/kg/injection, schedule: Q04DX003 (ip), vehicle: saline) 100 % of control.

For the molecule `CC(CC(=O)O)C(C(=O)O)C(=O)O` (configuration not stated), the T/C was 94 % of control (dose: 6.25 mg/kg/injection, schedule: Q04DX003 (ip), vehicle: Klucel (hydroxypropylcellulose) (HPC)); 107 % of control (dose: 6.25 mg/kg/injection, schedule: Q04DX003 (ip), vehicle: water); 108 % of control (dose: 12.5 mg/kg/injection, schedule: Q01DX009 (ip), vehicle: water); 92 % of control under setting [8]; 95 % of control and 105 % of control (dose: 12.5 mg/kg/injection, schedule: Q04DX003 (ip), vehicle: water); 107 % of control (dose: 25.0 mg/kg/injection, schedule: Q01DX009 (ip), vehicle: water). Moreover, the T/C is 92 % of control under setting [9]; 266 % of control and 94 % of control and 110 % of control (dose: 25.0 mg/kg/injection, schedule: Q04DX003 (ip), vehicle: water); 90 % of control (dose: 50.0 mg/kg/injection, schedule: Q04DX003 (ip), vehicle: Klucel (hydroxypropylcellulose) (HPC)); 266 % of control and 95 % of control and 117 % of control (dose: 50.0 mg/kg/injection, schedule: Q04DX003 (ip), vehicle: water); 100 % of control (dose: 100.0 mg/kg/injection, schedule: Q01DX009 (ip), vehicle: water); 91 % of control under setting [6]. The T/C runs as follows: (dose: 100.0 mg/kg/injection, schedule: Q04DX003 (ip), vehicle: water) 86 % of control and 95 % of control and 100 % of control; (dose: 200.0 mg/kg/injection, schedule: Q01DX009 (ip), vehicle: water) 91 % of control; under setting [7], 90 % of control; (dose: 200.0 mg/kg/injection, schedule: Q04DX003 (ip), vehicle: water) 101 % of control and 111 % of control; (dose: 400.0 mg/kg/injection, schedule: Q01DX009 (ip), vehicle: water) 91 % of control.

For `CCC[N+]12C(O)C(CC)C3CC1C1N(C)c4ccc(Br)cc4C14CC2C3C4O` (configuration not stated), the T/C by setting is: under setting [4], 102 % of control; under setting [12], 105 % of control.

As for `O=C1C=C(NC2CCCCC2)CCC1`, the T/C under setting [13] was 96 % of control, the T/C under setting [10] is 99 % of control and the T/C under setting [11] was 99 % of control.

Consider `Cc1ccnc(NS(=O)(=O)c2ccc(N=Cc3ccc(N(C)C)cc3)cc2)n1`, for which the T/C under setting [4] was 90 % of control, the T/C under setting [12] was 93 % of control and the T/C under setting [14] is 90 % of control.

For the molecule `C=C(CN(CC(=C)C(=O)c1ccccc1)C(C)(C)C)C(=O)c1ccccc1`, the T/C is, setting by setting: (dose: 6.25 mg/kg/injection, schedule: Q01DX009 (ip), vehicle: saline with Tween-80) 106 % of control; under setting [2], 111 % of control; under setting [3], 103 % of control.

With `ClCCCCCCCCCCc1ccccc1`, the T/C under setting [5] was 106 % of control; the T/C (dose: 100.0 mg/kg/injection, schedule: Q04DX003 (ip), vehicle: saline with Tween-80) was 109 % of control and 110 % of control; the T/C (dose: 200.0 mg/kg/injection, schedule: Q04DX003 (ip), vehicle: saline with Tween-80) was 108 % of control and 118 % of control.

For `CCCCCCCCN(C)N=Nc1ccc(Cl)cc1C(=O)O`, the T/C is 94 % of control under setting [12]; 116 % of control under setting [14]; 88 % of control (dose: 400.0 mg/kg/injection, schedule: Q01DX009 (ip), vehicle: saline with Tween-80).

As for `CCCCCCCCCCCCCC[N+]1([O-])CCCC1`, the T/C was 108 % of control under setting [1]; 100 % of control (dose: 25.0 mg/kg/injection, schedule: Q01DX009 (ip), vehicle: saline); 95 % of control under setting [13].

In the case of `Cc1ccc(S(=O)(=O)N/N=C/C(O)C(O)C(O)CO)cc1` (configuration not stated), the T/C was 110 % of control (dose: 100.0 mg/kg/injection, schedule: Q01DX001 (ip), vehicle: saline); 105 % of control (dose: 200.0 mg/kg/injection, schedule: Q01DX001 (ip), vehicle: saline); 120 % of control (dose: 400.0 mg/kg/injection, schedule: Q01DX001 (ip), vehicle: saline).
